In patent publication US12583868B2, “JAK inhibitors and methods for synthesizing and using thereof” (GALDERMA HOLDING SA, priority 2020, dated 2026):
“And” between values parts separate entries of the source, which are not always exact repeats. Equal entries are not always repeated. Where two headings read alike, the source gives them in different places.

Legend:
[1] = test system: IL-6 induced pSTAT3 in TF-1 cells; experiment: In vitro cellular pSTAT3 assay, IL-6 stimulated TF-1 cells; format: cell-based; details: Homo sapiens
Method: . The flasks were incubated overnight at 37° C., 5% CO2 then seeded in 96 well plates (TPP) at 150000 cells/well in 25 μL. Cells were treated with 5 IL/well of serially diluted compounds in DMSO (final DMSO concentration of 0.1%) and incubated for 30 min at 37° C. IL-6 (6 IL/well, 100 ng/ml as a final concentration in Opti-MEM, Thermofisher, PHC0066) was added to the cell plates and followed by a 30-min incubation at 37° C. Next, cells were lysed by adding 12 μl/well of 4× supplemented lysis buffer, incubated at 4° C. for 30 min under agitation. The samples were processed for the pSTAT3 detection as described by the manufacturer (MSD) with 25 μl of non-diluted cell lysates tested. Compounds were tested in simplicates over 10 three-step dilutions in order to determine their IC50 values.

IL6 = experiment: hWB assay, IL6; format: cell-based, h
Chrom logD pH 7.4 = format: physicochemical
SF logD = format: physicochemical
[2] = Human skin ex vivo: flux through skin and dermis concentration (Franz cells); format: in vitro ADME; details: PG/H2O cream 1 mg/mL, human skin
Kinetic aq sol = format: physicochemical
[3] = Thermodynamic sol PG_H2O pH 6 2/8; format: physicochemical; details: amorphous material
[4] = Protein binding analysis (RED), human plasma; format: in vitro ADME; details: 5 μM
Method: (§1) The protein binding was assessed in plasma of Human, male balb-c mice, male Wistar Han rat, male Göttingen minipig by rapid equilibrium dialysis (RED) devices. After the plasma and buffer phosphate 50 mM pH7.4 were equilibrated at 37° C., the compound was added to plasma to reach a final concentration of 5 μM. An aliquot of plasma was withdrawn immediately. Equilibration under mild agitation was continued for 4 h. The plasma and buffer were sampled and samples were quenched with 4 volumes of acetonitrile and centrifuged. Supernatant was quantified in HPLC/MS/MS to calculate the recovery and the percentage of compound dissolved in the buffer (unbound) and bound to plasma proteins.

[5] = Protein binding analysis (RED), rat plasma; format: in vitro ADME, male Wistar Han rat; details: 5 μM
Method: as §1

[6] = Protein binding analysis (RED), mouse plasma; format: in vitro ADME, male balb-c mice; details: 5 μM
Method: as §1

[7] = Protein binding analysis (RED), minipig plasma; format: in vitro ADME; details: male, Göttingen, pH 7.4, read-out: minipig FU
Method: as §1

[8] = Intrinsic clearance in hepatocytes, human; format: in vitro ADME; details: 2.5 μM
Method: (§2) The intrinsic clearance was assessed in cryopreserved Hepatocytes obtained by Human livers donors of mix gender pooled together, male balb-c mouse, male Wistar Han rats and male Göttingen minipig, by looking at the parent compound disappearance. The incubations were performed using a final concentration of viable cells of 1 million/ml (viability above 70%) and test item of 2.5 μM. Incubations were followed up to 2 h. Aliquotes were withdrawn at different time points and reaction quenched with acetonitrile. After centrifugation the supernatant was analyzed by HPLC/MS to quantify the remaining amount of parent in comparison with time 0. The clearance was calculated by fitting the log of the percentage remaining with Graphpad Prism ver.7.

[9] = Intrinsic clearance in hepatocytes, rat; format: in vitro ADME, male Wistar Han rats; details: 2.5 μM
Method: as §2

[10] = Intrinsic clearance in hepatocytes, mouse; format: in vitro ADME, male balb-c mouse; details: 2.5 μM
Method: as §2

[11] = Intrinsic clearance in hepatocytes, minipig; format: in vitro ADME, male Göttingen minipig; details: 2.5 μM
Method: as §2

[12] = In vivo pharmacokinetic analysis in rat (iv); design: species or system male Wistar Han rat; details: iv 1 mg/kg
Method: (§3) One male Wistar Han rat. Compound was administered intravenously to fed animal at a target dose of 1 mg/kg, dose volume: 2 mL/kg, in DMSO/hydroxypropyl-beta-cyclodextrin 20% in phosphate buffer 60 mM pH 7 (5:95). Blood samples were collected at various time points. Blood samples were then assayed using a method based upon protein precipitation with acetonitrile followed by LC/MS/MS analysis. Non-compartmental methods were used for pharmacokinetic analysis of blood concentration versus time data

[13] = In vivo pharmacokinetic analysis in minipig (iv); design: species or system male Göttingen minipigs; details: iv 1 mg/kg
Method: as §3, with “Three” for “One”, “Göttingen minipigs.” for “Wistar Han rat.”, “animals” for “animal”, “volume 1” for “volume: 2”, “DMSO: hydroxypropyl-p-cyclodextrin” for “DMSO/hydroxypropyl-beta-cyclodextrin”, “data.” for “data”

[14] = Systemic level in PD/IL6 mouse topical dose response; format: in vivo, BALB/c ByJ Rj mice; details: topical 10 mM
Method: Skin samples were harvested 15 min.

CYP2D6 = target: T1, CYP2D6 (Homo sapiens, UniProt P10635); experiment: CYP2D6 inhibition in human liver microsomes; format: in vitro ADME; details: dextromethorphan, CRL data
T1 construct: Human pooled liver microsomes of mixed gender (mainly Caucasian); from tissue; host or cells: pooled human liver microsomes
Method: After 5 min at 37° C. incubations were started with NADPH and prolonged for 10 min. The test compound was tested up to 30 μM keeping the final concentration of organic solvent was below 0.5%. The final concentration of microsomes was 0.1 mg/ml to ensure linearity during the time of the incubation. The reaction was quenched by adding 3 volume of acetonitrile. After centrifugation the supernatant was analyzed by HPLC/MS/MS for the formation of des-methyldextromethorphane selectively produced by CYP2D6 and 1′hydroxymidazolam or 6p-hydroxytestosterone, selectively produced by CYP3A. IC50 was calculated with Graphpad Prism v.7 comparing the amount of metabolite produced in presence of the test compound with that produced in absence of test item.

44 targets = format: binding
Method: An in vitro pharmacology assay was conducted to assess the capability of the compounds to interact with different pharmacological targets when tested at 10 μM in different binding and enzyme/uptake assays. The included targets are indicative of potential effects in major organs and drug-drug interactions.
Compound binding was calculated as a % inhibition of the binding of a radioactively labelled ligand specific for each target. […] […].

T1 sequence (P10635 whole entry): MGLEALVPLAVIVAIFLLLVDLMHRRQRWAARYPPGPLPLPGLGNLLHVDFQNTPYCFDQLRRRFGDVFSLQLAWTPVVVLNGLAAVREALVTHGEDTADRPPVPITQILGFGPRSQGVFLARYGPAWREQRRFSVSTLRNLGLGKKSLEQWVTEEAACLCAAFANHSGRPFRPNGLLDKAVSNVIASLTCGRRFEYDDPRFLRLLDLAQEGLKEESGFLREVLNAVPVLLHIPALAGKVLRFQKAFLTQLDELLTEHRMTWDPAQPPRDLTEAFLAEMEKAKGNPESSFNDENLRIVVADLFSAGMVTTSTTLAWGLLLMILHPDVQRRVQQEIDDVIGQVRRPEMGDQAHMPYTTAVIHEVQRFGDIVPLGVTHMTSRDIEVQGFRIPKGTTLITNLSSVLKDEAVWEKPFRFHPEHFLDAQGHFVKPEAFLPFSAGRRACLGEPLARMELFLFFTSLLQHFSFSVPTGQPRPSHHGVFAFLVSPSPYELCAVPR

**Q.** With `N#CC[C@H](C1CCCC1)n1cc(-c2ncnc3[nH]ccc23)cn1` [Ruxolitinib, reference compound] as the compound, how does the IC50 ([1]; TF-1, read-out: Cellular Assay: IC50 IL6) read?
**A.** 8 nM

**Q.** And the IC50 ([1]; TF-1, read-out: Free IC50)?
**A.** 200 nM

**Q.** And the IC50 (IL6)?
**A.** 6900 nM

**Q.** What about the chromatographic logD (Chrom logD pH 7.4) of the same compound?
**A.** 1.5

**Q.** What about the logD (SF logD) of the same compound?
**A.** 2.3

**Q.** And the “measured flux 6-24 hr” value [2]?
**A.** 5.3 ng/cm^2/hr

**Q.** What about the Kinetic aq sol (Kinetic aq sol) of the same compound?
**A.** 232/ND (no cristalline microM

**Q.** What about the “Thermodynamic sol PG_H2O pH 6 2/8” value [3] of the same compound?
**A.** 1 mM and 0.3 mg/mL

**Q.** And the hFU [4]?
**A.** 4%

**Q.** What about the rFU [5] of the same compound?
**A.** 13%

**Q.** What about the mFU [6] of the same compound?
**A.** 7.7%

**Q.** What about the fraction unbound at 4 h, 5 μM [7] of the same compound?
**A.** 0.25

**Q.** What about the “Intr. Clear. h heps” value [8] of the same compound?
**A.** 4.4 microL/min/10 6 cells

**Q.** What about the “Intr. Clear. rheps” value [9] of the same compound?
**A.** 300 microL/min/10 6 cells

**Q.** What about the “Intr. Clear. mheps” value [10] of the same compound?
**A.** 150 microL/min/10 6 cells

**Q.** And the “Intr. Clear. minipig heps” value [11]?
**A.** 141 microL/min/10 6 cells

**Q.** What about the “iv PK rat: ER” value [12] of the same compound?
**A.** 51%

**Q.** What about the clearance ([12]; male, Wistar Han, whole blood, read-out: iv PK rat: Cl) of the same compound?
**A.** 40 mL/min/kg

**Q.** What about the “iv PK minipig: ER” value [13] of the same compound?
**A.** 68%

**Q.** And the clearance ([13]; male, Göttingen, whole blood, read-out: iv PK minipig: Cl)?
**A.** 19 mL/min/kg

**Q.** What about the “PD/IL6 mouse top DR 0.01-10 mM (PG/Acetone/Transcutol): Systemic level @10 mM - 2 hrs” value [14] of the same compound?
**A.** 81 nM

**Q.** What about the IC50 (CYP2D6) of the same compound?
**A.** > 30000 nM

**Q.** What about the “Safety panel (Cerep): 44 targets % inh @10 microM Nb of targets > 50% inh” value (44 targets) of the same compound?
**A.** 0/44
